Experimental data as given in patent publication US5698547A, “Cephalosporin antibiotics” (Microcide Pharmaceuticals, Inc., priority 1995, dated 1997).
In brackets after ≈: the same amount, converted by molar mass. Counter-ions that a name gives are not always drawn.

Legend:
[1] = tested on: methicillin-susceptible S. aureus strain ATCC 13709; assay: murine model for lethal bacteremic peritonitis; format: in vivo, female Swiss-Webster mice; settings: subcutaneous, 72 h
Description: Groups of 5 female Swiss-Webster mice (Simonsen, Gilroy, Calif.) each are challenged by the intraperitoneal (IP) route with tenfold increments of a bacterial inoculum. This permits calculation of the mean lethal dose (LD50) and the LD100. For preliminary evaluation of a new antibiotic, mice are challenged IP with an LD100 titer of bacteria. In two equal doses administered at the time of bacterial challenge and 2 hours later, groups of 10 mice each are treated subcutaneously with two-fold increments of the test drug and an antibiotic of known efficacy in mice and humans (i.e., positive control). Mice are observed for 72 h. Those alive at 72 h are considered long term survivors. The total drug dose in mg/kg that protects 50% of mice in a group from death is termed the mean protective dose (PD50). PD50 s are similarly determined for several pathogens. The quantitative endpoints for the new drug are then compared with those obtained with reference antibiotics.
Six ten-fold dilutions of inoculum suspended in 0.5 mL of sterilized 7% hog gastric mucin (Sigma) are injected IP in groups of 5 mice each. A control group of 5 mice receive mucin alone. Mice are observed for 72 h. Those alive at 72 h are considered long term survivors. The mean lethal dose (LD50) and 100% lethal dose (LD100) are determined by the probit test.
For antibiotic efficacy studies, mice are challenged IP with bacterial titers that will afford an LD100 for the test strain. In two equal doses administered at the time of bacterial challenge and 2 hours later, groups of 10 mice each are treated by the subcutaneous route (SC) with twofold increments of the test antibiotic; another group is treated similarly with a reference antibiotic of known efficacy in animals and man. Drug doses can range from 0.01 to 512 mg/kg. If the drug is poorly soluble, Tween 20 or propylene glycol will be employed to solubilize the drug. Animals are observed for 72 h. The 50% protective dose (PD50) is calculated in mg/kg by the probit method. The PD50 is the same as the 50% effective dose (ED50) and the 50% curative dose (CD50). Samples of blood from the hearts of all animals that die and from half the mice that survive are cultured on brain-heart infusion agar. Animals that received a protective dosage of the test drug will be alive at 72 h, although they may appear moderately ill to very ill during the observation period. […] Most of these mice will die within 6 to 48 h. Those alive at 72 h will be considered long term survivors.
(Compound numbers correspond to those in MIC tables; data
reported for challenge with methicillin-susceptible S. aureus

[2] = tested on: S. aureus Col (Meth^R) (lac^-); assay: MIC by agar dilution, S. aureus Col (Meth^R) (lac^-); format: cell-based; settings: Staphylococcus aureus; agar dilution; S. aureus Col (Meth^R) (lac^-); read-out: MIC
Outline: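 Agar dilution per NCCLS (1991): two-fold dilutions from 128 μg/mL down to ≤0.25 μg/mL in Mueller-Hinton agar, each level in duplicate. Spots of about 10^4 cfu of log-phase culture; 16-20 h at 35°-36° C. MIC in μg/ml is the lowest concentration inhibiting growth.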

| SMILES | Mortality ([1]; dose 0.3125 mg/kg) | Mortality ([1]; dose 0.625 mg/kg) | Mortality ([1]; dose 1.25 mg/kg) | Mortality ([1]; dose 2.5 mg/kg) | Mortality ([1]; dose 5 mg/kg) | MIC [2] [µg/mL] | Mortality ([1]; dose 10 mg/kg) | Mortality ([1]; dose 0.1562 mg/kg) |
| --- | --- | --- | --- | --- | --- | --- | --- | --- |
| N=C(N)SCc1ccc(CC(=O)N[C@@H]2C(=O)N3C(C(=O)O)=C(Sc4ccccc4CSC(=N)N)CS[C@H]23)cc1 [Cmpd 97, (7R)-7-[((4-isothiouroniummethylphenyl)acetyl)amino]-3-(2-isothiouroniummethylphenylthio)-3-cephem-4-carboxylate, trifluoroacetic acid salt] | 8/10 | 5/10 | 3/10 | 2/10 | 0/10 | 2 | – | – |
| N=C(N)SCc1ccccc1SC1=C(C(=O)O)N2C(=O)[C@@H](NC(=O)Cc3ccccc3CN)[C@H]2SC1 [Cmpd 101, (7R)-7-[((2-Aminomethylphenyl)acetyl)amino]-3-(2-isothiouroniummethylphenylthio)-3-cephem-4-carboxylate, trifluoroacetic acid salt] | – | 5/10 | 2/10 | 0/10 | 0/10 | 4 | 0/10 | – |
| N#Cc1ncccc1SC1=C(C(=O)O)N2C(=O)[C@@H](NC(=O)Cc3ccccc3)[C@H]2SC1 [Cmpd 102, (7R)-7-[(Phenylacetyl)amino]-3-(2-cyanopyridin-3-ylthio)-3-cephem-4-carboxylic acid] | 10/10 | 8/10 | 7/10 | 5/10 | 0/10 | 4 (≈ 8.84 µM) | – | – |
| O=C(Cc1ccccc1)N[C@@H]1C(=O)N2C(C(=O)O)=C(Sc3cccnc3-n3cccn3)CS[C@H]12 [Cmpd 103, (7R)-7-[(Phenylacetyl)amino]-3-(2-(pyrazol-1-yl)pyridin-3-ylthio)-3-cephem-4-carboxylic acid] | – | 7/10 | 7/10 | 7/10 | 5/10 | 2 (≈ 4.05 µM) | 0/10 | – |
| CCC(CC)O/N=C(\C(=O)N[C@@H]1C(=O)N2C(C(=O)O)=C(Sc3ccnn3-c3ccccc3)CS[C@H]12)c1csc(N)n1 [Cmpd 104, (7R)-7-[(Z)-2-(aminothiazol-4-yl)-2-(3-pentyloxyimino)acetamido]-3-(1-N-phenylpyrazol-5-ylthio)-3-cephem-4-carboxylic acid] | – | 6/10 | 10/10 | 8/10 | 8/10 | 2 (≈ 3.26 µM) | 9/10 | – |
| CSCC(=O)N[C@@H]1C(=O)N2C(C(=O)O)=C(Sc3ccnn3-c3ccccc3)CS[C@H]12 [Cmpd 106, (7R)-7-[(methylthioacetyl)amino]-3-(1-N-phenylpyrazol-5-ylthio)-3-cephem-4-carboxylic acid] | 9/10 | 6/10 | 2/10 | 1/10 | – | 1 (≈ 2.16 µM) | – | 9/10 |
| O=C(CC1CC1)N[C@@H]1C(=O)N2C(C(=O)O)=C(Sc3ccnn3-c3ccccc3)CS[C@H]12 [Cmpd 107, (7R)-7-[(cyclopropylacetyl)amino]-3-(1-N-phenylpyrazol-5-ylthio)-3-cephem-4-carboxylic acid] | – | 8/10 | 6/10 | 5/10 | 0/10 | 4 (≈ 8.76 µM) | 0/10 | – |
| Nc1nc(/C(=N/OCC2CC2)C(=O)N[C@@H]2C(=O)N3C(C(=O)O)=C(Sc4ccnn4-c4ccccc4)CS[C@H]23)cs1 [Cmpd 108, (7R)-7-[(Z)-2-(2-aminothiazol-4-yl)-2-(cyclopropylmethyloxyimino)acetamido]-3-(1-N-phenylpyrazol-5-ylthio)-3-cephem-4-carboxylic acid] | – | 9/10 | 8/10 | 9/10 | 10/10 | 4 (≈ 6.69 µM) | 10/10 | – |
| O=C(CSc1ccncc1)N[C@@H]1C(=O)N2C(C(=O)O)=C(Sc3ccnn3-c3ccccc3)CS[C@H]12 [Cmpd 110, (7R)-7-[(4-pyridylthioacetyl)amino]-3-(1-N-phenylpyrazol-5-ylthio)-3-cephem-4-carboxylic acid] | – | 8/10 | 7/10 | 8/10 | 6/10 | 2 (≈ 3.8 µM) | 0/10 | – |
| O=C(O)C1=C(Sc2ccnn2-c2ccccc2)CS[C@@H]2[C@H](NC(=O)C3SCCS3)C(=O)N12 [Cmpd 115, (7R)-7-[(2-dithiolanylcarbonyl)amino]-3-(1-N-phenylpyrazol-5-ylthio)-3-cephem-4-carboxylic acid] | – | 8/10 | 9/10 | 7/10 | 4/10 | 4 (≈ 7.89 µM) | 0/10 | – |
| Cc1nnc(SCC(=O)N[C@@H]2C(=O)N3C(C(=O)O)=C(Sc4ccnn4-c4ccccc4)CS[C@H]23)s1 [Cmpd 118] | – | 8/10 | 6/10 | 8/10 | 4/10 | 4 (≈ 7.32 µM) | 2/10 | – |
| O=C(CSc1ccccc1)N[C@@H]1C(=O)N2C(C(=O)O)=C(Sc3ccnn3-c3ccccc3)CS[C@H]12 [Cmpd 119, (7R)-7-[(phenylthioacetyl)amino]-3-(1-N-phenylpyrazol-5-ylthio)-3-cephem-4-carboxylic acid] | 10/10 | 9/10 | 10/10 | 7/10 | 8/10 | 2 (≈ 3.81 µM) | – | – |
| N#CCSCC(=O)N[C@@H]1C(=O)N2C(C(=O)O)=C(Sc3ccnn3-c3ccccc3)CS[C@H]12 [Cmpd 122, (7R)-7-[(cyanomethylthioacetyl)amino]-3-(1-N-phenylpyrazol-5-ylthio)-3-cephem-4-carboxylic acid] | – | 8/10 | 6/10 | 0/10 | 0/10 | 4 (≈ 8.2 µM) | 0/10 | – |
| CC(C)N=C(NC(C)C)SCC(=O)N[C@@H]1C(=O)N2C(C(=O)O)=C(Sc3ccccc3CSC(=N)N)CS[C@H]12 [Cmpd 125, (7R)-7-[((N,N'-diisopropylisothiouronium)acetyl)amino]-3-(2-isothiouroniummethylphenylthio)-3-cephem-4-carboxylate, trifluoroacetic acid salt] | – | 9/10 | 10/10 | 7/10 | 4/9 | 4 | 7/10 | – |
| CSCC(=O)N[C@@H]1C(=O)N2C(C(=O)O)=C(Sc3ccccc3CSC(=N)N)CS[C@H]12 [Cmpd 127, (7R)-7-[(methylthioacetyl)amino]-3-(2-isothiouroniummethylphenylthio)-3-cephem-4-carboxylate, inner salt] | 6/10 | 5/10 | 4/10 | 2/10 | 1/10 | 4 | – | – |
| O=C(O)C1=C(Sc2ccnn2-c2ccccc2)CS[C@@H]2[C@H](NC(=O)/C(=N\O)c3ccccc3)C(=O)N12 [Cmpd 130, (7R)-7-[(Z)-2-(Phenyl)-2-(hydroxyimino)acetamido]-3-(1-N-(phenyl)pyrazol-5-ylthio)-3-cephem-4-carboxylic acid] | – | 10/10 | 7/10 | 9/10 | 6/10 | 2 (≈ 3.83 µM) | 6/10 | – |
